Patent US4886793A, “Penem derivatives” (Farmitalia Carlo Erba, S.r.l., priority 1986, dated 1989)

Experiments:
[1] = Pharmacokinetics in mouse; settings: in vivo
From the text: (§1) In vivo data for (5R,6S)-6-[(1R)-hydroxy ethyl]-2-[4-(1-pyridinio)methylphenyl]oxymethylpenem-3-carboxylate (example 1, Compound 5,FCE 24386)

Pharmacokinetics in rat = settings: in vivo
From the text: as §1

[2] = test system: Staphilococcus aureus Smith; assay: Experimental infection in mice, Staphilococcus aureus Smith; type: in vivo, Staphilococcus aureus Smith (infected mice); settings: Mus musculus, intraperitoneal infection, 3 × LD50 challenge, treatments at 30, 90 and 360 minutes after infection
Protocol: (§2) ^1 Intraperitoneal infection in mice with a 3 × LD50
(§3) challenge; treatments at 30, 90 and 360 minutes after infection.

Escherichia coli G II = assay: Experimental infection in mice, Escherichia coli G II; type: in vivo, Escherichia coli G II (infected mice); settings: intraperitoneal infection, 3 × LD50 challenge, treatments at 30, 90 and 360 minutes after infection
Protocol: as §2, §3

C[C@@H](O)[C@H]1C(=O)N2C(C(=O)[O-])=C(COc3ccc(C[n+]4ccccc4)cc3)S[C@H]12 [Compound 5, (5R,6S)-6-[(1R)-hydroxyethyl]-2-[4-(1-pyridinio)methylphenyl]oxymethylpenem-3-carboxylate]
Fa ([1]; sc, Mouse, s.c., read-out: % Absorption s.c.): 100% | AUC ([1]; mouse): 56000 ng·h/mL | half-life ([1]; mouse, read-out: t 1/2β): 27 min | AUC (Pharmacokinetics in rat): 103000 ng·h/mL | half-life (Pharmacokinetics in rat; read-out: t 1/2β): 28 min | ED50 [2]: < 0.032 mg/kg | ED50 (Escherichia coli G II): 1.55 mg/kg
